Data taken from patent publication EP4692059A1, “CATIONIC LIPID HAVING DISULFIDE BOND” (Tohoku University, priority 2023, dated 2024).

Columns and labels:
mouse red blood cells = experiment: Hemolysis activity (membrane fusion ability) at pH 7.4 and 5.5 (Experimental Example 8); assay type: cell-based, ICR mice; details: physiological pH (7.4); final lipid concentration 100 µM; Fig. 3
Method: LNP encapsulating mRNA that expresses luciferase (cationic lipid:DOPC:Chol:DMG-PEG2k = 52.5:7.5:40:1.5 (molar ratio)) was prepared by the method described in […], 1. As cationic lipid, the cationic lipid of Comparative Example, compound 94, compound 112, compound 162, compound 181, or compound 194 was used.
The collected blood was immediately mixed with 1.0 µL of heparin solution (5000 U/5 mL). About 9 mL of PBS was added to the blood to make the total volume 10 mL. The mixture was then mixed by inversion and centrifuged (4°C, 400 g, 10 min). The supernatant containing plasma components was removed using a Pasteur pipette. About 9 mL of PBS was added to the blood cell components to make the total volume 10 mL, and the mixture was centrifuged again. A similar washing procedure was repeated 4 times to obtain mouse red blood cells.
2, 4, 6, 8, and 10 µL of mouse red blood cells were weighed and diluted with PBS containing 1 w/v% Triton-X100. The entire diluted solution was transferred to a clear 96-well plate, and the absorbance at 545 nm was measured using a plate reader. A calibration curve was created using these samples, and the point where the absorbance reached 1 was determined as the amount of blood cells to be used in the hemolysis assay. Empty LNP solution was weighed into an Eppendorf tube and diluted with malic acid-PBS buffer (pH 5.5, pH 7.4), followed by addition of mouse red blood cells. The final lipid concentration was 100 µM at pH 7.4 and 33.3 µM at pH 5.5, and the final volume of the solution was 250 µL. Each tube was shaken at 1900 rpm for 15 min. Each sample was centrifuged under centrifugation conditions (4°C, 400 g, 5 min), and 100 µL of the supernatant was transferred to a clear 96-well plate and the absorbance at 545 nm was measured. Untreated red blood cells were used as the negative control. 1 w/v% Triton-X was used as the positive control. The hemolysis activity of each sample was calculated using the following formula: Hemolysis activity (%) = 100×(absorbance of each sample - absorbance of negative control)/(absorbance of positive control - absorbance of negative control).

[1] = Particle size, PdI and zeta potential of mRNA-encapsulating LNPs by dynamic light scattering (Experimental Example 6); assay type: physicochemical; details: mRNA-encapsulating LNP
Method: An acidic buffer solution (total amount: 1300 µL) of nucleic acid was prepared by weighing 6.5 µg of mRNA solution (0.6 mg/mL) in a 5 mL tube and adding acidic citrate buffer (20 mM, pH 5.0).
An acidic buffer solution of nucleic acid and an ethanol solution of lipid were each weighed in a syringe. […] The obtained concentrate was diluted with TBS to a lipid concentration of 2 mM to give a dispersion containing LNP.
The particle size, PdI (Polydispersity Index), and zeta potential of the mRNA-encapsulating LNP prepared by the method of the above-mentioned 1 were measured by a dynamic light scattering method (Zetasizer Nano; Malvern). […]

HeLa cells = experiment: In vitro gene expression in HeLa cells (luciferase mRNA-encapsulating LNP, cumulative luminescence in 24 hr)
Method: LNP encapsulating mRNA that expresses luciferase (cationic lipid:DOPC:Chol:DMG-PEG2k = 50:10:40:1 (molar ratio)) was prepared by the method described in [Experimental Example 2], 1.
HeLa cells, which are human cervical cancer cells, were seeded in a 3.5 cm dish at 5.0×10^4 cells/2 mL/Dish 24 hours before transfection. After 24 hr, the medium was changed to a culture medium (D-MEM) containing 0.1 mM D-luciferin. The prepared mRNA-encapsulating LNP was diluted with PBS to an mRNA concentration of about 1 µg/mL. The diluted mRNA-encapsulating LNP solution (about 200 µL, mRNA: 0.2 µg) was added to a 3.5 cm dish, and set in an incubator luminometer KronosDio. The luminescence intensity of luciferase was measured for 2 min every one hour. The cumulative luciferase luminescence intensity in 24 hr was calculated from the obtained time change of expression. […] In Comparative Example, the cationic lipid described in Table 2 was used.

[2] = cationic lipid:DOPC:Chol=49:7.5:42.5:1, dispersion in TBS, dynamic light scattering (Tables 8-1, 8-2)

zeta potential (mV) ([1]; cationic lipid:DOPC:Chol=49:7.5:42.5:1, dispersion in TBS (Tables 8-1, 8-2)): -2.68 mV
PdI [1, 2]: 0.075
particle size (nm) [1, 2]: 123.80 nm
SMILES: CCCCCCCC/C=C\CCCCCCCC(=O)Oc1ccc(CC(=O)OCCC2CCN(CCSSCCN3CCC(CCOC(=O)Cc4ccc(OC(=O)CCCCCCC/C=C\CCCCCCCC)cc4)CC3)CC2)cc1 [Comparative Example, reference compound]
hemolysis activity (mouse red blood cells): none
cumulative luciferase luminescence intensity (RLU) in 24 hr (HeLa cells; LNP cationic lipid:DOPC:Chol:DMG-PEG2k = 50:10:40:1, mRNA 0.2 µg per dish, E+0a means 10^a): 1.85E+07 RLU
relative luminescence intensity (HeLa cells; cumulative intensity in 24 hr relative to cationic lipid of Comparative Example): 1.00
